Laboratory results taken from publication PMC11489226 (Archives of Toxicology, 2024).

Legend:
CYP2A6 = molecular target: T1, CYP2A6 (Homo sapiens, UniProt P11509); assay: Urinary 1,7-dimethyluric acid/paraxanthine metabolic ratio after caffeine (CYP2A6 phenotyping); settings: urine, 0–360 min after 50 mg caffeine oral; ten PCB-exposed subjects
T1 sequence (P11509 1-494): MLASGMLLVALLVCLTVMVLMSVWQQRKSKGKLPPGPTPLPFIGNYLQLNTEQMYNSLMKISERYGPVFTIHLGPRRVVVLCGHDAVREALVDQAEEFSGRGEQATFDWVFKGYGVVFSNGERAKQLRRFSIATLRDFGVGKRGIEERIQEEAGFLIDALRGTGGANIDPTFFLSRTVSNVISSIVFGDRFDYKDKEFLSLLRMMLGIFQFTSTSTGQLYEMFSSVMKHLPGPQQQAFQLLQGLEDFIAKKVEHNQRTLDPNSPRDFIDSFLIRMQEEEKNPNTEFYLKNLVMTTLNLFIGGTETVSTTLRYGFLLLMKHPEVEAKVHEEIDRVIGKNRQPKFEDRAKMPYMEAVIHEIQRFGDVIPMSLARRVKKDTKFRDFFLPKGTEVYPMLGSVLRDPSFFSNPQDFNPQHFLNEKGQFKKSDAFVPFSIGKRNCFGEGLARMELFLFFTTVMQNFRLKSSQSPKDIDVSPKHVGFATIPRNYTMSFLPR
Description: Ten subjects with prior occupational exposure to PCBs and ten controls were included into a clinical CYP phenotyping cocktail study at the Institute for Occupational, Social and Environmental Medicine, University Hospital RWTH Aachen. PCB-exposed participants were reinvited from the HELPcB (Health Effects in High-Level Exposure to PCB) medical surveillance program. […] Subjects were allowed to consume non-caffeinated beverages and received a meal 3 following the administration of the drug cocktail. Concentrations of the test compounds and their CYP-mediated metabolites were measured using LC–MS, with urine sampling over 24 h with 5 time points at 1,2,4,6, and 24 h after drug cocktail intake. […] Urine samples were weighed during sampling.
20 µL urine or calibrators and quality controls in Sigmatrix urine diluent (SAE0074-1L, Sigma-Aldrich) were protein precipitated with 80 µL methanol including 1000 ng/mL internal standards caffeine-d9, paraxanthine-d6, and 1,7-dimethyluric acid-d3. Samples were briefly vortexed and centrifuged for 5 min at 17,000g and 4 °C. […] Caffeine and paraxanthine were detected in positive ion mode and 1,7-dimethyluric acid in negative ion mode. […] The metabolic ratio for 1,7-dimethyluric acid/paraxanthine was calculated based on the measured urine concentrations. […]

HEK293CYP2A6 cells [1] = assay: MTT assay in HEK293CYP2A6 cells; assay type: cell-based, human; settings: for Concentration from which the fraction of cell viability affected (FA) increased: HEK293CYP2A6 cells, MTT; for IC50: Homo sapiens, HEK293CYP2A6 cell line, read-out: IC50 (MTT, cell viability / metabolic activity); for PCB concentration at which the difference between HEK293 cells and CYP2A6 transgenic cells becomes statistically significant: MTT assay, Fig. 2
Procedure: For the determination of metabolic activity, HEK293 cells as well as transgenic HEK293CYP2A6 and HEK293CYP2C9 cells were plated into 96-well flat-bottomed microtiter plates (Becton Dickinson, Heidelberg, Germany) at a density of 1 × 10^5 cells in 100 μL of media. Cells were allowed to grow for 24 h geneticin free before PCBs were added. Controls included cells grown in medium with and without ethanol (maximal 1% (vol/vol)) added. After 48 h, the ability of remaining viable cells to transform 3-(4,5-dimethylthiazol-2-yl)-2,5-diphenyltetrazolium bromide (MTT) into formazan was assessed (MTT Cell Proliferation Assay, ATCC, Manassas, USA). The absorbance of the samples was measured on a Microplate Reader (FLUOstar, BMG Labtech, Ortenberg, Germany) at 450 nm.

fish cells = system: fish cells; design: method as in Marabini et al. [2011]; settings: ref Marabini et al. [2011]; cited from earlier work
HEK293CYP2A6 cells [2] = assay: Light microscopic evaluation of HEK293CYP2A6 cells; assay type: cell-based, human; settings: 24 h of incubation (data not shown)
HEK293CYP2A6 cells [3] = assay: Micronucleus assay in HEK293CYP2A6 cells; assay type: cell-based, human; settings: HEK293CYP2A6 cells; 20 and 30 µM, 24 h
Procedure: (§1) Transgenic HEK293CYP2A6 and HEK293CYP2C9 cells were cultured in T25 flasks, with a seeding density of 1 × 10^6 cells per flask at 37 °C with 5% CO2. Cells were allowed to grow for 24 h geneticin free before PCBs were added (20 µM or 30 µM). Controls included cells grown in the presence of 1% ethanol (vol/vol) (negative control) or […] 4-nitroquinoline 1-oxide (positive control). Following further incubation for 24 h, cells were synchronized by adding Cytochalasin B. Subsequently, cells were harvested by trypsinization, centrifuged (2,000g, 10 min), and washed with DPBS (Dulbecco’s PBS). For hypotonic shock, 4 °C cold potassium chloride solution was added to the cells under agitation. Cells were completely resuspended and incubated at room temperature for 5 min. After centrifugation (2,500g, 10 min), the supernatant was discarded. To fix the cells, they were treated with a methanol/acetic acid solution (− 20 °C), with a minimum incubation time of 15 min at room temperature. Following centrifugation (2,500g, 10 min), the supernatant was discarded, and the fixation process was repeated at least three times. Finally, the samples were dissolved in 1 mL of fixative solution and incubated overnight at 4 °C. For analysis, two to three drops from each sample were placed on a glass slide, with intermittent heating of the slide. Subsequently, the cells were visualized with acridine orange, and using a fluorescence microscope (Leica DM6000B, Filter I3 450–490 nm), 2,000 cells per sample were counted.

HEK293CYP2A6 cells [4] = assay: Neutral comet assay in HEK293CYP2A6 cells; assay type: cell-based, human; settings: for Comet assay: percentage of tail DNA / DNA damage above background: 20 or 30 µM
Procedure: (§2) For neutral comet assays, transgenic CYP2A6 and transgenic CYP2C9 cells were treated with parent PCBs for 5 h. After treatments, 50 μL of a suspension of 10^5 cells/mL were washed in PBS and resuspended in 500 μL of preheated agarose (37 °C). The agarose/cell suspensions were applied to microscopic slides and left for 30 min at 4 °C to allow gel polymerization. After cell lysis using a commercial buffer (Trevigen, Gaithersburg, USA), single-cell gel electrophoresis was performed at 1 V/cm for 1 h. After precipitation of the DNA with ammonium acetate, samples were fixed in 70% ethanol for 30 min and dried. To visualize dsDNA, SYBR™ Green I Nucleic Acid Gel Stain (Invitrogen, Carlsbad, USA) was used. Pictures of at least 50 cells/section were taken using a fluorescence microscope (DMRX, Leica: 450–490 nm BP- filter, 40 × magnification). The extent of the genotoxic effect of PCBs was calculated using the ImageJ-based OpenComet software.

[5] = PCB concentrations in plasma of HELPcB participants (2010); assay type: in vivo, human; settings: human, plasma, other: occupational exposure, sample of 2010
HEK293CYP2C9 cells [6] = assay: Micronucleus assay in HEK293CYP2C9 cells; assay type: cell-based, human; settings: 20 and 30 µM, 24 h
Procedure: as §1

human lung fibroblast = system: human lung fibroblast; design: method as in Hashmi et al. [2015]; settings: higher concentrations compared to lower concentrations; ref Hashmi et al. [2015]; cited from earlier work
bone marrow and liver = system: bone marrow and liver; design: method as in Sargent et al. [1992]; settings: ref Sargent et al. [1992]; cited from earlier work
human lymphocytes [7] = system: human lymphocytes; design: method as in Sargent et al. [1989]; settings: ref Sargent et al. [1989]; cited from earlier work
human lymphocytes [8] = system: human lymphocytes; design: method as in Stadnicki et al. [1979]; settings: ref Stadnicki et al. [1979]; cited from earlier work
mouse fibroblasts = system: mouse fibroblasts; design: method as in Stadnicki et al. [1979]; settings: ref Stadnicki et al. [1979]; cited from earlier work
[9] = system: Salmonella typhimurium strains; design: method as in Wyndham et al. [1976]; settings: PCB52 and its primary metabolites; ref Wyndham et al. [1976]; cited from earlier work
HEK293CYP2C9 cells [10] = assay: Neutral comet assay in HEK293CYP2C9 cells; assay type: cell-based, human; settings: HEK293CYP2C9 control cells; 20 or 30 µM
Procedure: as §2

With `Cn1c(=O)[nH]c2[nH]c(=O)n(C)c2c1=O` [1,7-DMU, 1,7-dimethyluric acid] the “Logarithmically transformed metabolic ratio of 1,7-DMU and paraxanthine, median” value (CYP2A6) was 0.4.

For `Clc1ccc(Cl)c(-c2cc(Cl)c(Cl)cc2Cl)c1` [PCB101, 2,2′,4,5,5′-pentachlorobiphenyl], the “Concentration from which the fraction of cell viability affected (FA) increased” value (HEK293CYP2A6 cells [1]) was 20 µM, the IC50 (HEK293CYP2A6 cells [1]) was 34.8 µM and the “PCB concentration at which the difference between HEK293 cells and CYP2A6 transgenic cells becomes statistically significant” value (HEK293CYP2A6 cells [1]) was 60 µM. The DNA strand breaks (fish cells) was “induce”, the Micronucleus formation (fish cells) was “induce” and the “Light microscopic evaluation: type of effect” value (from here on “Light microscopic evaluation”) (HEK293CYP2A6 cells [2]) was “cytostatic effects (proliferation arrest)”. The Percentages of micronuclei (HEK293CYP2A6 cells [3]) was “approximately threefold elevated”, the “DNA damage classified according to the comet scale (percentage of tail DNA)” value (HEK293CYP2A6 cells [4]; 20 µM) was “high damage” and the “DNA damage classified according to the comet scale (percentage of tail DNA)” value (HEK293CYP2A6 cells [4]; 30 µM) was “moderate damage”. For the same compound, the “Comet assay: percentage of tail DNA / DNA damage above background” value (HEK293CYP2A6 cells [4]) was “DNA damage was also seen”, the “Genotoxicity compared with etoposide (comet assay)” value (HEK293CYP2A6 cells [4]; etoposide 10 µm positive control) was “more potent than of etoposide” and the concentration at 2010 calendar year ([5]; HELPcB participant AD) was 0.073 ng/mL. It also gave a concentration at 2010 calendar year ([5]; HELPcB participant AE) of 0.005 ng/mL, a concentration at 2010 calendar year ([5]; HELPcB participant eight) of 0.005 ng/mL and a concentration at 2010 calendar year ([5]; HELPcB participant five) of 0.111 ng/mL. The concentration at 2010 calendar year ([5]; HELPcB participant four) was 0.005 ng/mL, the concentration at 2010 calendar year of sampling ([5]; HELPcB participant one) was 0.519 ng/mL and the concentration at 2010 calendar year ([5]; HELPcB participant seven) was 0.03 ng/mL. For the same compound, the concentration at 2010 calendar year ([5]; HELPcB participant six) was 0.227 ng/mL, the concentration at 2010 calendar year ([5]; HELPcB participant three) was 0.078 ng/mL and the concentration at 2010 calendar year of sampling ([5]; HELPcB participant two) was 0.005 ng/mL. The Percentages of micronuclei (HEK293CYP2C9 cells [6]) was “inactive” and the Genotoxicity (human lung fibroblast) was “increased significantly”.

In the case of `Clc1ccc(Cl)c(-c2cc(Cl)ccc2Cl)c1` [PCB52, 2,2′,5,5′-tetrachlorobiphenyl], the “Concentration from which the fraction of cell viability affected (FA) increased” value (HEK293CYP2A6 cells [1]) is reported as 20 µM, the IC50 (HEK293CYP2A6 cells [1]) is reported as 26.2 µM and the “PCB concentration at which the difference between HEK293 cells and CYP2A6 transgenic cells becomes statistically significant” value (HEK293CYP2A6 cells [1]) is reported as 40 µM. For the same compound, the “Chromosomal aberrations in vivo” value (bone marrow and liver) was “absence of chromosomal aberrations”, the “Light microscopic evaluation” value (HEK293CYP2A6 cells [2]) was “cytostatic effects (proliferation arrest)” and the Percentages of micronuclei (HEK293CYP2A6 cells [3]) was “diminished effect”. The “DNA damage classified according to the comet scale (percentage of tail DNA)” value (HEK293CYP2A6 cells [4]; 20 µM) was “low damage”, the “DNA damage classified according to the comet scale (percentage of tail DNA)” value (HEK293CYP2A6 cells [4]; 30 µM) was “low damage” and the “Comet assay: percentage of tail DNA / DNA damage above background” value (HEK293CYP2A6 cells [4]) was “not”. For the same compound, the Sister chromatid exchange (human lymphocytes [7]) was “negative”, the concentration at 2010 calendar year ([5]; HELPcB participant AD) was 0.026 ng/mL and the concentration at 2010 calendar year ([5]; HELPcB participant AE) was 0.005 ng/mL. It also gave a concentration at 2010 calendar year ([5]; HELPcB participant eight) of 0.005 ng/mL, a concentration at 2010 calendar year ([5]; HELPcB participant five) of 0.031 ng/mL and a concentration at 2010 calendar year ([5]; HELPcB participant four) of 0.005 ng/mL. The concentration at 2010 calendar year of sampling ([5]; HELPcB participant one) was 0.348 ng/mL, the concentration at 2010 calendar year ([5]; HELPcB participant seven) was 0.021 ng/mL and the concentration at 2010 calendar year ([5]; HELPcB participant six) was 0.043 ng/mL. The concentration at 2010 calendar year ([5]; HELPcB participant three) was 0.04 ng/mL, the concentration at 2010 calendar year of sampling ([5]; HELPcB participant two) was 0.005 ng/mL and the Percentages of micronuclei (HEK293CYP2C9 cells [6]) was “indistinguishable effects”. The DNA strand breaks (human lymphocytes [8]) was “positive or weakly positive”, the DNA strand breaks (mouse fibroblasts) was “positive or weakly positive” and the Mutagenic activity [9] was “did not exhibit mutagenic activity”.

With `Clc1ccc(-c2ccc(Cl)cc2Cl)cc1` [PCB28, 2,4,4′-trichlorobiphenyl] the “Comet assay: increase in percentage of tail DNA” value (HEK293CYP2C9 cells [10]) was “not evident”, the “Concentration from which the fraction of cell viability affected (FA) increased” value (HEK293CYP2A6 cells [1]) was 10 µM and the IC50 (HEK293CYP2A6 cells [1]) was 27 µM. For the same compound, the “PCB concentration at which the difference between HEK293 cells and CYP2A6 transgenic cells becomes statistically significant” value (HEK293CYP2A6 cells [1]) was 40 µM, the “Light microscopic evaluation” value (HEK293CYP2A6 cells [2]) was “primarily cytotoxic effects (cell death)” and the “DNA damage classified according to the comet scale (percentage of tail DNA)” value (HEK293CYP2A6 cells [4]; 20 µM) was “moderate damage”. The “DNA damage classified according to the comet scale (percentage of tail DNA)” value (HEK293CYP2A6 cells [4]; 30 µM) was “moderate damage”, the “Comet assay: percentage of tail DNA / DNA damage above background” value (HEK293CYP2A6 cells [4]) was “concentration-dependent increase” and the concentration at 2010 calendar year ([5]; HELPcB participant AD) was 0.823 ng/mL. It also gave a concentration at 2010 calendar year ([5]; HELPcB participant AE) of 1.48 ng/mL, a concentration at 2010 calendar year ([5]; HELPcB participant eight) of 0.1 ng/mL and a concentration at 2010 calendar year ([5]; HELPcB participant five) of 0.21 ng/mL. It also gave a concentration at 2010 calendar year ([5]; HELPcB participant four) of 0.023 ng/mL, a concentration at 2010 calendar year of sampling ([5]; HELPcB participant one) of 2.69 ng/mL and a concentration at 2010 calendar year ([5]; HELPcB participant seven) of 0.051 ng/mL. It also gave a concentration at 2010 calendar year ([5]; HELPcB participant six) of 0.309 ng/mL, a concentration at 2010 calendar year ([5]; HELPcB participant three) of 0.999 ng/mL and a concentration at 2010 calendar year of sampling ([5]; HELPcB participant two) of 0.019 ng/mL. The Percentages of micronuclei (HEK293CYP2C9 cells [6]) was “inactive”.
